Experimental findings from paper PMC4076079, “Selective inhibitors of a PAF biosynthetic enzyme lysophosphatidylcholine acyltransferase 2” (Journal of Lipid Research, 2014) are described below.

What all share (assay type): biochemical
In assay [1] the target is T1, hLPCAT1 (Homo sapiens, UniProt Q8NF37).
T1 construct: expressed in transfected cells
T1 sequence (Q8NF37 1-534): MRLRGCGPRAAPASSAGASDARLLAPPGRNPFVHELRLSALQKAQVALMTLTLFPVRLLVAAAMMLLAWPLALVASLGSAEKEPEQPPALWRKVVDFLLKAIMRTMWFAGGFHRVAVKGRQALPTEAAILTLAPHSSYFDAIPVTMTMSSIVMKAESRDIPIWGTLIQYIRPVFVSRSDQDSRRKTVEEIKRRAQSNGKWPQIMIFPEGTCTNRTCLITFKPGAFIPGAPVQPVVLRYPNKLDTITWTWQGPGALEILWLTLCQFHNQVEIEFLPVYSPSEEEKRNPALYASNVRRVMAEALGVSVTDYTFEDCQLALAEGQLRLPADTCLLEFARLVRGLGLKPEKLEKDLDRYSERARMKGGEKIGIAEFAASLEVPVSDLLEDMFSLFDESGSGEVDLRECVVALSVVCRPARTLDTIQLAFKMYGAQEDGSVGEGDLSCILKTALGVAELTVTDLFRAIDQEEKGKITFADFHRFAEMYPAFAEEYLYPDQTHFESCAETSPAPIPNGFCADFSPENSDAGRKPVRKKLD
Description: acyltransferase activity assay, DPPC product by LC-MS/MS. The following applies: 0, 0.2, 0.6, 2, 6 and 20 μM of each compound in triplicate; LC-MS/MS; read-out: IC50, product DPPC, enzyme hLPCAT1. As to the method:
(§1) Microsomal protein fractions (0.5 μg) supplemented with the indicated compound concentrations were added to the reaction mixture containing 100 mM Tris-HCl (pH 7.4), 1 μM CaCl2, 0.015% Tween-20, and two substrates. For acetyltransferase activity, the substrates were 1 mM acetyl-CoA and 5 μM d4-lyso-PAF; for the acyltransferase activity of LPCAT1 or LPCAT2, the substrates were, respectively, palmitoyl-CoA and d31-16:0 LPC or arachidonoyl-CoA and d4-lyso-PAF (all 5 μM). Each lysophospholipid contained fatty acid at the sn-1 position. After incubation at 37°C for 5 min, the reactions were stopped by adding 300 μl methanol containing 17:0 LPC or 14:0/14:0 PC as an internal standard. Deuterium-labeled products were analyzed by LC-MS/MS (Waters, Milford, MA and Thermo Scientific, Waltham, MA). […]
(§2) Steps 2 to 5 screening: 96-well plate assay
(§3) Acetyltransferase and acyltransferase assays were developed in 96-well plates. The microsomal hLPCAT2, obtained from mcPAF-stimulated CHO-S-PAFR cells was used in steps 1, 2, and 5. The microsomal hLPCAT1 obtained from unstimulated CHO-S cells was used in steps 3 to 5. Each well of the 96-well plates contained 30 µl of 15 µg/ml protein, 600 nl of 2 mM compound, 30 µl buffer C, and two substrates (Fig. 1B and C).
(§4) Substrate concentrations were as follows: acetyl-CoA, 250 or 1000 µM acetyl-CoA; […]
(§5) arachidonoyl-CoA, 5 µM; palmitoyl-CoA, 5 µM; d4-lyso-PAF, 5 µM; and d31-LPC, 5 µM.
(§6) For step 5, compound concentrations were 0, 0.167, 0.67, 2, 6.7, and 20 µM. The deuterium-labeled products were measured by LC-MS/MS. Percentage inhibition (steps 2 to 4) or IC50 (step 5) was used as the hit criterion. […]
(§7) Step 7 screening: species-specific differences
(§8) To evaluate the effects on the activity of mouse or human LPCAT1 and LPCAT2, each microsomal fraction was obtained using CHO-S-PAFR cells with or without mcPAF (200 nM) stimulation for 5 min. Acetyltransferase and acyltransferase assays were performed with 20 µM of each compound. Percentage inhibition was calculated in each

The target of assay [2] is T2, hLPCAT2 (Homo sapiens, UniProt Q7L5N7).
T2 construct: expressed in transfected cells; host or cells: CHO-S-PAFR cells (microsomal fraction), with or without mcPAF stimulation
T2 sequence (Q7L5N7 1-544): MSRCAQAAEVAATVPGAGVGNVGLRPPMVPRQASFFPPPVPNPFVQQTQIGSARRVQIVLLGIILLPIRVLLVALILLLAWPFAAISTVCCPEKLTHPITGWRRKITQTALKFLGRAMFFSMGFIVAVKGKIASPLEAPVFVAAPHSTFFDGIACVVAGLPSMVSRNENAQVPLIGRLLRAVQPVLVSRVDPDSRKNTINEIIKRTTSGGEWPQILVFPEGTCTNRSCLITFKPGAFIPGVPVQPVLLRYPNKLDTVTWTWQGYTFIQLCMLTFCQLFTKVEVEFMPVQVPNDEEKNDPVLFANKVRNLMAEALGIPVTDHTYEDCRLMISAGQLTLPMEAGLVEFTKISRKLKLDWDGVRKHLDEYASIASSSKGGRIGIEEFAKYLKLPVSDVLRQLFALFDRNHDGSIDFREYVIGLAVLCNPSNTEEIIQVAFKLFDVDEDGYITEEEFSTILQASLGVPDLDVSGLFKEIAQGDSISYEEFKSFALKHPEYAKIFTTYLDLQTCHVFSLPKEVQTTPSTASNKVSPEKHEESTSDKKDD
Description: acyltransferase activity assay, 16:0/20:4 alkyl-PC product by LC-MS/MS. To be noted: 0, 0.2, 0.6, 2, 6 and 20 μM of each compound in triplicate; LC-MS/MS; read-out: IC50, product Alkyl-PC (16:0/20:4 alkyl-PC), enzyme hLPCAT2. As to the method:
as §1, §2, §3, §4, §5, §6, §7, §8

Assay [3] concerns the target T1, hLPCAT1. Description: lyso-PAFAT (acetyltransferase) activity assay, PAF product by LC-MS/MS. The following applies: 0, 0.2, 0.6, 2, 6 and 20 μM of each compound in triplicate; LC-MS/MS; read-out: IC50, product PAF, enzyme hLPCAT1. How it is done: as §1, §2, §3, §4, §5, §6, §7, §8
Assay [4] has as its target T2, hLPCAT2. The assay is described as above. To be noted: 0, 0.2, 0.6, 2, 6 and 20 μM of each compound in triplicate; LC-MS/MS; read-out: IC50, product PAF, enzyme hLPCAT2. How it is done: as §1, §2, §3, §4, §5
For step 5, compound concentrations were 0, 0.167, 0.67, 2, 6.7, and 20 µM. The deuterium-labeled products were measured by LC-MS/MS. Percentage inhibition (steps 2 to 4) or IC50 (step 5) was used as the hit criterion.
Step 6 screening: BSA assay
The acetyltransferase assay was performed with 20 µM of each compound and microsomal hLPCAT2 from step 1. The assay mixture contained 0.4% BSA and two substrates for lyso-PAFAT activity: 1 mM acetyl-CoA and 5 µM d4-lyso-PAF. Percentage inhibition values were determined.
as §7, §8

SMILES strings stand for the structures. pIC50: −log10 of the molar value. “And” between values parts separate entries of the source, which are not always exact repeats. Equal values may be shown once. Bounds are passed on as bounds.

Consider `CCN1C(=O)C=CC1=O` [N-ethylmaleimide (NEM), N-ethylmaleimide, reference compound], for which the pIC50 in assay [1] is 2.73; in assay [2], 4.16; in assay [3] it was 2.76; in assay [4], 3.97.

As to `COC(=O)c1ccc(N2C(=O)C(Cl)=C(Nc3ccc(S(N)(=O)=O)cc3)C2=O)cc1` [TSI-08], the pIC50 in assay [1], in assay [2], in assay [3] and in assay [4] was less than 4.70 in each case.

For `COc1ccc(Cl)cc1N1C(=O)C(Cl)=C(Nc2ccccc2O)C1=O` [TSI-04], the pIC50 was less than 4.70 in assay [1]; less than 4.70 in assay [2]; 5.11 in assay [3]; < 5.00 and 4.79 in assay [4].

`COc1ccc(Cl)cc1N1C(=O)C(Cl)=C(Cl)C1=O` [TSI-03]: the pIC50 was less than 4.70 in assay [1]; 4.77 in assay [2]; 5.03 in assay [3]; < 5.00 and 4.92 in assay [4].

With `COC(=O)c1ccc(N2C(=O)C(Cl)=C(Cl)C2=O)cc1` [TSI-09], the pIC50 in assay [1] is less than 4.70; in assay [2], 4.94; in assay [3] it was 5.00; in assay [4] it was 5.46.

For the compound `CC(C)OC(=O)c1ccc(N2C(=O)C(Cl)=C(N3CCOCC3)C2=O)cc1` [TSI-06], the pIC50 in assay [1], in assay [2], in assay [3] and in assay [4] was less than 4.70 in each case.

Regarding `COc1ccc(N2C(=O)C(Cl)=C(Oc3ccccc3OC)C2=O)cc1` [TSI-05], the pIC50 is less than 4.70 in assay [1], 5.12 in assay [2], less than 4.70 in assay [3] and less than 4.70 in assay [4].
